pIC50: −log10 of the molar value.

Results on 45 compounds are retold here after US7605163B2, “Benzoyl-piperazine derivatives” (Hoffmann-La Roche Inc., priority 2003, dated 2009).

The assay addresses T1, mGlyT-1b (Mus musculus, UniProt P28571).
T1 construct: host or cells: Flp-in-CHO cells
T1 sequence (P28571 1-651 isoform P28571-2): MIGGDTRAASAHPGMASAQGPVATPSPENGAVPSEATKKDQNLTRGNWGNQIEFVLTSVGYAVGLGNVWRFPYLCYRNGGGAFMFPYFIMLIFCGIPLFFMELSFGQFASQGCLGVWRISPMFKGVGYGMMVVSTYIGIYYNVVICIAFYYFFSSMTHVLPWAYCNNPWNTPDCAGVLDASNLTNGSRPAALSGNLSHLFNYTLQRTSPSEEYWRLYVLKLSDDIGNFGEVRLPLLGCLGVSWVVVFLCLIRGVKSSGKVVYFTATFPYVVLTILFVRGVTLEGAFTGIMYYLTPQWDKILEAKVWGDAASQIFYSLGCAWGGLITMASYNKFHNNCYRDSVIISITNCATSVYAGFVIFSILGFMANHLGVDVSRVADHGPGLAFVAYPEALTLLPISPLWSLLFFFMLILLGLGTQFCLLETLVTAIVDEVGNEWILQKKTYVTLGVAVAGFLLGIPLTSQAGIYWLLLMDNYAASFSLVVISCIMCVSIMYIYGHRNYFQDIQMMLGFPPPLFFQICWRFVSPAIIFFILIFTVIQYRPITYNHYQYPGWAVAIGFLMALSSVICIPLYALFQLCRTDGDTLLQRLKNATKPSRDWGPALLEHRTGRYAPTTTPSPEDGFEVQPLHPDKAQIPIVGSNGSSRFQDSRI
Put plainly: Glycine Uptake Inhibition Assay (mGlyT-1b). The following applies: [3H]-glycine uptake inhibition at GlyT-1, Flp-in-CHO cells transfected with mGlyT-1b cDNA. The assay is classed as cell-based. The procedure: DMEM complete medium: Nutrient mixture F-12 (Gibco Life-technologies), fetal bovine serum (FBS) 5%, (Gibco life technologies), Penicillin/Streptomycin 1% (Gibco life technologies), Hygromycin 0.6 mg/ml (Gibco life technologies), Glutamine 1 mM Gibco life technologies)
Uptake buffer (UB): 150 mM NaCl, 10 mM Hepes-Tris, pH 7.4, 1 mM CaCl2, 2.5 mM KCl, 2.5 mM MgSO4, 10 mM (+) D-glucose. Flp-in™-CHO (Invitrogen Cat n^o R758-07) cells stably transfected with mGlyT1b cDNA.
Glycine Uptake Inhibition Assay (mGlyT-1b)
On day 1 mammalian cells, (Flp-in™-CHO), transfected with mGlyT-1b cDNA, were plated at the density of 40,000 cells/well in complete F-12 medium, without hygromycin in 96-well culture plates. On day 2, the medium was aspirated, and the cells were washed twice with uptake buffer (UB). The cells were then incubated for 20 min at 22° C. with either (i) no potential competitor, (ii) 10 mM non-radioactive glycine, (iii) a concentration of a potential inhibitor. A range of concentrations of the potential inhibitor was used to generate data for calculating the concentration of inhibitor resulting in 50% of the effect (e.g. IC50, the concentration of the competitor inhibiting glycine uptake of 50%).
A solution was then immediately added containing [^3H]-glycine 60 nM (11-16 Ci/mmol) and 25 μM non-radioactive glycine. The plates were incubated with gentle shaking, and the reaction was stopped by aspiration of the mixture and washing (three times) with ice-cold UB. The cells were lysed with scintillation liquid, shaken 3 hours and the radioactivity in the cells counted using a scintillation counter.
The term pIC50 denotes the IC50 on a negative log10 scale, so that one unit is a factor of ten. A higher pIC50 goes with a small IC50. In turn, `CNS(=O)(=O)c1ccc(OCC(C)C)c(C(=O)N2CCN(c3ccc(C#N)cc3F)CC2)c1` [compound 504] showed a pIC50 of 7.60.

In turn, `CS(=O)(=O)c1ccc(OCC(F)(F)C(F)(F)F)c(C(=O)N2CCN(c3ccc(C(F)(F)F)cc3)CC2)c1` [compound 182] gave a pIC50 of 7.52.

`CC(C)(C)COc1ccc(S(C)(=O)=O)cc1C(=O)N1CCN(c2ccc(C(F)(F)F)cc2F)CC1` [compound 294]: the negative-log IC50 (pIC50) is 7.43. The pIC50 values of the last two compounds are within 0.2 log units of each other.

Turning to `CS(=O)(=O)c1ccc(OCC2CCC2)c(C(=O)N2CCN(c3cc(F)c(C#N)c(F)c3)CC2)c1` [compound 148], the pIC50 is 7.44.

Consider `CC(Oc1ccc(S(C)(=O)=O)cc1C(=O)N1CCN(c2ccc(C#N)c(F)c2F)CC1)C(F)(F)F` (racemic) [compound 207], for which the negative logarithm of the IC50 (pIC50) is 7.64.

In turn, `CCC(C)Oc1ccc(S(C)(=O)=O)cc1C(=O)N1CCN(c2ccc(C(F)(F)F)cc2F)CC1` (racemic) [compound 324] showed a pIC50 of 7.41.

Compound `CC(C)(C)Oc1ccc(S(C)(=O)=O)cc1C(=O)N1CCN(c2ccc(C#N)cc2F)CC1` [compound 244] gave a pIC50 of 7.38.

Consider `CNS(=O)(=O)c1ccc(OCC2CC2)c(C(=O)N2CCN(c3ccc(C(C)=O)cc3F)CC2)c1` [compound 519], for which the pIC50 was 7.46. This pIC50 and that of the compound before are within 0.2 log units of each other.

Compound `CC(C)Oc1ccc(S(C)(=O)=O)cc1C(=O)N1CCN(c2ccc(S(=O)(=O)C3CCCC3)cc2F)CC1` [compound 571] showed a pIC50 of 7.30.

As for `CC(C)Oc1ccc(S(C)(=O)=O)cc1C(=O)N1CCN(c2ncc(C(F)(F)F)cc2F)CC1` [compound 437], the pIC50 is 7.59.

As for `CS(=O)(=O)c1ccc(OC2CCC2)c(C(=O)N2CCN(c3ccc(S(=O)(=O)C4CC4)cc3F)CC2)c1` [compound 576], the pIC50 is 7.41.

The compound `CC(Oc1ccc(S(C)(=O)=O)cc1C(=O)N1CCN(c2ccc(C#N)c(F)c2)CC1)C(F)(F)F` (racemic) [compound 300] gave a pIC50 of 7.80. Compared with the last compound, the pIC50 is 0.39 log units higher.

Compound `CC(C)Oc1ccc(S(C)(=O)=O)cc1C(=O)N1CCN(c2ccc(S(=O)(=O)C3CCCCC3)cc2F)CC1` [compound 589] gave a pIC50 of 7.49.

Consider `CNS(=O)(=O)c1ccc(OC(C)C)c(C(=O)N2CCN(c3ccc(C(F)(F)F)cc3)CC2)c1` [compound 526], for which the pIC50 was 8.05.

`CC(C)Oc1ccc(S(C)(=O)=O)cc1C(=O)N1CCN(c2ccc(S(=O)(=O)C(F)(F)F)cc2)CC1` [Example 328, (2-Isopropoxy-5-methanesulfonyl-phenyl)-[4-(4-trifluoromethanesulfonyl-phenyl)-piperazin-1-yl]-methanone] had a pIC50 of 7.49.

In the case of `CS(=O)(=O)c1ccc(OC2CCCC2)c(C(=O)N2CCN(c3ccc(C#N)c(F)c3F)CC2)c1` [compound 131], the pIC50 is 7.52.

`CNS(=O)(=O)c1ccc(OCC2CCC2)c(C(=O)N2CCN(c3ccc(C(F)(F)F)cc3)CC2)c1` [compound 530] gave a pIC50 of 8.24.

`CS(=O)(=O)c1ccc(OC2CCCCC2)c(C(=O)N2CCN(c3ccc(C#N)cc3F)CC2)c1` [compound 283] gave a pIC50 of 8.10. This pIC50 and that of the compound before are within 0.2 log units of each other.

For `CNS(=O)(=O)c1ccc(OCC2CCC2)c(C(=O)N2CCN(c3ccc(C#N)cc3)CC2)c1` [compound 494], the pIC50 is 7.52.

In the case of `CNS(=O)(=O)c1ccc(OC2CCCC2)c(C(=O)N2CCN(c3ccc(C#N)cc3)CC2)c1` [compound 491], the pIC50 is 7.43.

On to `CC(C)(C)COc1ccc(S(C)(=O)=O)cc1C(=O)N1CCN(c2ccc(C(F)(F)F)cc2)CC1` [compound 293], for which the negative logarithm of the IC50 (pIC50) is 7.47.

In turn, `CNS(=O)(=O)c1ccc(OC2CCCC2)c(C(=O)N2CCN(c3ccc(C(F)(F)F)cc3)CC2)c1` [compound 527] gave a pIC50 of 8.22.

In turn, `CC(Oc1ccc(S(C)(=O)=O)cc1C(=O)N1CCN(c2ccc(C(F)(F)F)cc2)CC1)C(F)(F)F` (single isomer, unassigned) [compound 469] showed a pIC50 of 7.70.

In the case of `CC(Oc1ccc(S(C)(=O)=O)cc1C(=O)N1CCN(c2ccc(C(F)(F)F)cc2F)CC1)C(F)(F)F` (single isomer, unassigned) [compound 466], the pIC50 was 7.59.

As for `CC(C)(C)Oc1ccc(S(C)(=O)=O)cc1C(=O)N1CCN(c2cc(F)c(S(C)(=O)=O)cc2F)CC1` [compound 249], the pIC50 was 7.49.

The compound `CS(=O)(=O)c1ccc(OC2CCCCC2)c(C(=O)N2CCN(c3ccc(S(=O)(=O)C4CC4)cc3F)CC2)c1` [compound 574] showed a negative-log IC50 (pIC50) of 7.47.

As for `CS(=O)(=O)c1ccc(OC2CCCC2)c(C(=O)N2CCN(c3ccc(C(F)(F)F)cn3)CC2)c1` [compound 412], the pIC50 was 7.48.

For `CS(=O)(=O)c1ccc(OC2CCCCC2)c(C(=O)N2CCN(c3ccc(C#N)c(F)c3)CC2)c1` [compound 284], the pIC50 was 8.00.

With `CNS(=O)(=O)c1ccc(OCC(C)C)c(C(=O)N2CCN(c3ccc(C(F)(F)F)cc3)CC2)c1` [compound 524], the negative-log IC50 (pIC50) is 7.92.

Regarding `CC(C)(C)COc1ccc(S(C)(=O)=O)cc1C(=O)N1CCN(c2ccc(C#N)cc2F)CC1` [compound 291], the pIC50 is 7.89.

`CS(=O)(=O)c1ccc(OCC(F)(F)C(F)(F)F)c(C(=O)N2CCN(c3ccc(C#N)c(F)c3)CC2)c1` [compound 180] showed a negative logarithm of the IC50 (pIC50) of 7.44. Compared with the last compound, the pIC50 is 0.45 log units lower.

With `CNS(=O)(=O)c1ccc(OC2CCCC2)c(C(=O)N2CCN(c3ccc(C(C)=O)cc3F)CC2)c1` [compound 517], the pIC50 is 7.46.

Consider `CS(=O)(=O)c1ccc(OC2CCCC2)c(C(=O)N2CCN(c3ccc(C#N)cn3)CC2)c1` [compound 411], for which the pIC50 was 7.35.

Consider `CC(C)(Oc1ccc(S(C)(=O)=O)cc1C(=O)N1CCN(c2ccc(C(F)(F)F)cn2)CC1)C(F)(F)F` [Example 105, [5-Methanesulfonyl-2-(2,2,2-trifluoro-1,1-dimethyl-ethoxy)-phenyl]-[4-(5-trifluoromethyl-pyridin-2-yl)-piperazin-1-yl]-methanone], for which the negative logarithm of the IC50 (pIC50) is 7.41.

Regarding `CNS(=O)(=O)c1ccc(OCC2CCC2)c(C(=O)N2CCN(c3ccc(C#N)cc3F)CC2)c1` [compound 510], the pIC50 is 7.82.

In turn, `CS(=O)(=O)c1ccc(OCC(F)(F)C(F)F)c(C(=O)N2CCN(c3c(F)cc(C#N)cc3F)CC2)c1` [compound 215] showed a pIC50 of 7.31.

`CS(=O)(=O)c1ccc(OCC(F)(F)C(F)F)c(C(=O)N2CCN(c3ccc(C(F)(F)F)cc3)CC2)c1` [compound 211] showed a pIC50 of 7.37.

Turning to `O=C(c1cc([N+](=O)[O-])ccc1OC1CCC1)N1CCN(c2ccc(C(F)(F)F)cc2)CC1` [Example 74, (2-Cyclobutoxy-5-nitro-phenyl)-[4-(4-trifluoromethyl-phenyl)-piperazin-1-yl]-methanone], the pIC50 is 7.80.

For `CS(=O)(=O)c1ccc(OCC(F)(F)C(F)(F)F)c(C(=O)N2CCN(c3ccc(C#N)c(F)c3F)CC2)c1` [compound 184], the pIC50 is 7.66.

In turn, `CNS(=O)(=O)c1ccc(OC(F)(F)F)c(C(=O)N2CCN(c3ccc(C#N)c(F)c3)CC2)c1` [compound 111] had a pIC50 of 7.46.

Take `CCS(=O)(=O)c1ccc(N2CCN(C(=O)c3cc(S(C)(=O)=O)ccc3OC3CCCC3)CC2)c(F)c1` [compound 563]: the pIC50 was 7.37.

Compound `CC(Oc1ccc(S(C)(=O)=O)cc1C(=O)N1CCN(c2ccc(C(F)(F)F)cc2)CC1)C1CC1` (racemic) [Example 104, Rac-[2-(1-Cyclopropyl-ethoxy)-5-methanesulfonyl-phenyl]-[4-(4-trifluoromethyl-phenyl)-piperazin-1-yl]-methanone] gave a pIC50 of 7.34.

In turn, `CS(=O)(=O)c1ccc(OCC2CCC2)c(C(=O)N2CCN(c3ccc(C#N)c(F)c3F)CC2)c1` [compound 145] showed a pIC50 of 7.82.

The compound `CS(=O)(=O)c1ccc(OC2CCCC2)c(C(=O)N2CCN(c3ccc(S(=O)(=O)C(F)(F)F)cc3)CC2)c1` [Example 329, (2-Cyclopentyloxy-5-methanesulfonyl-phenyl)-[4-(4-trifluoromethanesulfonyl-phenyl)-piperazin-1-yl]-methanone] had a pIC50 of 7.80.

The compound `CS(=O)(=O)c1ccc(OC2CCCC2)c(C(=O)N2CCN(c3ncc(C(F)(F)F)cc3Cl)CC2)c1` [compound 413] showed a pIC50 of 7.52. Compared with the last compound, the pIC50 is 0.28 log units lower.
